Experimental data as given in ChEMBL document CHEMBL3227961, “Antileukemic activity of substituted ureidothiazoles, ureidothiadiazoles, and related compounds” (J Med Chem, 1979).
The source made the active and inactive calls. The calls are words filed in the database; no cut-off is given here.

Columns and labels:
P388 [1] = assay: Antitumor activity against mouse P388 cells allografted in BDF1 mouse assessed as survival at 200 mg/kg administered as qd for 1 to 9 days; type: functional, organism-based; parameters: dose 200 mg/kg
P388 [2] = assay: Antitumor activity against mouse P388 cells allografted in BDF1 mouse assessed as survival at 50 mg/kg administered as qd for 1 to 9 days; type: functional, organism-based; parameters: dose 50 mg/kg
P388 [3] = assay: Antitumor activity against mouse P388 cells allografted in BDF1 mouse assessed as tumor growth inhibition at 200 mg/kg administered as qd for 1 to 9 days relative to control; type: functional
P388 [4] = assay: Antitumor activity against mouse P388 cells allografted in BDF1 mouse assessed as tumor growth inhibition at 100 mg/kg administered as qd for 1 to 9 days relative to control; type: functional
P388 [5] = assay: Antitumor activity against mouse P388 cells allografted in BDF1 mouse assessed as tumor growth inhibition at 50 mg/kg administered as qd for 1 to 9 days relative to control; type: functional
P388 [6] = assay: Antitumor activity against mouse P388 cells allografted in BDF1 mouse assessed as survival at 400 mg/kg administered as qd for 1 to 9 days; type: functional, organism-based; parameters: dose 400 mg/kg
P388 [7] = assay: Antitumor activity against mouse P388 cells allografted in BDF1 mouse assessed as tumor growth inhibition at 400 mg/kg administered as qd for 1 to 9 days relative to control; type: functional
P388 [8] = assay: Antitumor activity against mouse P388 cells allografted in BDF1 mouse assessed as survival at 25 mg/kg administered as qd for 1 to 9 days; type: functional, organism-based; parameters: dose 25 mg/kg
P388 [9] = assay: Antitumor activity against mouse P388 cells allografted in BDF1 mouse assessed as tumor growth inhibition at 25 mg/kg administered as qd for 1 to 9 days relative to control; type: functional
P388 [10] = assay: Antitumor activity against mouse P388 cells allografted in BDF1 mouse assessed as survival at 100 mg/kg administered as qd for 1 to 9 days; type: functional, organism-based; parameters: dose 100 mg/kg
P388 [11] = assay: Antitumor activity against mouse P388 cells allografted in BDF1 mouse assessed as survival at 12.5 mg/kg administered as qd for 1 to 9 days; type: functional, organism-based; parameters: dose 12.5 mg/kg
P388 [12] = assay: Antitumor activity against mouse P388 cells allografted in BDF1 mouse assessed as tumor growth inhibition at 12.5 mg/kg administered as qd for 1 to 9 days relative to control; type: functional
B16 [13] = assay: Antitumor activity against mouse B16 cells allografted in BDF1 mouse assessed as tumor growth inhibition at 6.25 to 50 mg/kg administered as qd for 1 to 9 days relative to control; type: functional, organism-based
Mus musculus = assay: Toxicity in mouse B16 cells allografted in BDF1 mouse at 6.25 to 50 mg/kg administered as qd for 1 to 9 days; type: organism-based
B16 [14] = assay: Antitumor activity against mouse B16 cells allografted in BDF1 mouse assessed as tumor growth inhibition at 400 mg/kg administered as qd for 1 to 9 days relative to control; type: functional
B16 [15] = assay: Antitumor activity against mouse B16 cells allografted in BDF1 mouse assessed as tumor growth inhibition at 200 mg/kg administered as qd for 1 to 9 days relative to control; type: functional
B16 [16] = assay: Antitumor activity against mouse B16 cells allografted in BDF1 mouse assessed as tumor growth inhibition at 100 mg/kg administered as qd for 1 to 9 days relative to control; type: functional
B16 [17] = assay: Antitumor activity against mouse B16 cells allografted in BDF1 mouse assessed as tumor growth inhibition at 50 mg/kg administered as qd for 1 to 9 days relative to control; type: functional
B16 [18] = assay: Antitumor activity against mouse B16 cells allografted in BDF1 mouse assessed as tumor growth inhibition at 25 mg/kg administered as qd for 1 to 9 days relative to control; type: functional
L1210 = assay: Antitumor activity against mouse L1210 cells allografted in BDF1 mouse assessed as tumor growth inhibition at 200 mg/kg administered as qd for 1 to 9 days relative to control; type: functional
[19] = test system: Lewis lung carcinoma cell line; assay: Antitumor activity against mouse LLC cells allografted in BDF1 mouse assessed as tumor growth inhibition; type: functional

| Compound | Activity (P388 [1]) | Activity (P388 [2]) | T/C (P388 [3]) [%] | T/C (P388 [4]) [%] | T/C (P388 [5]) [%] | T/C (P388 [9]) [%] | Activity (P388 [10]) | further results |
| --- | --- | --- | --- | --- | --- | --- | --- | --- |
| CNC(=O)Nc1nccs1 | Active | Active | 97 | 96 | 105 |  |  |  |
| CCOC(=O)c1ccc(NC(=O)NC2=NCCS2)cc1 | Active |  | 87 |  |  |  |  | Activity (P388 [6]): Active; T/C (P388 [7]): 92% |
| N#Cc1ccc(NC(=O)Nc2nccs2)cc1 |  | Active |  | 160 | 132 | 124 |  | Activity (P388 [8]): Active |
| O=C(Nc1nccs1)C(F)(F)F |  |  | 99 | 104 |  |  | Active | Activity (P388 [6]): Active; T/C (P388 [7]): 108% |
| O=C(CCl)Nc1nncs1 | Active |  | 100 | 104 |  |  | Active |  |
| CCOC(=O)c1ccc(NC(=O)Nc2nnc(NC(=O)Nc3ccc(C(=O)OCC)cc3)[nH]2)cc1 |  | Active |  | 88 | 89 |  | Active |  |
| N#Cc1ccc(NC(=O)Nc2nncs2)cc1 |  | Active | 146 | 140 | 131 | 122 | Active | Activity (P388 [8]): Active |
| CCOC(=O)c1ccc(NC(=O)Nc2nc(C)cs2)cc1 | Active | Active | 138 | 127 | 109 |  | Active |  |
| CCOC(=O)c1ccc(NC(=O)Nc2nnn[nH]2)cc1 | Active |  | 100 |  |  |  |  | Activity (P388 [6]): Active; T/C (P388 [7]): 108% |
| O=C(Nc1ccc(C(=O)O)cc1)Nc1nccs1 | Active | Active | 163 | 150 | 143 | 125 | Active | Activity (P388 [8]): Active |
| Cc1ccc(NC(=O)Nc2nccs2)cc1 | Active |  | 105 | 99 |  |  | Active |  |
| CCOC(=O)c1ccc(NC(=O)Nc2nc3ccc(OC)cc3s2)cc1 | Active |  | 89 |  |  |  |  | Activity (P388 [6]): Active; T/C (P388 [7]): 89% |
| CCOC(=O)c1ccc(NC(=O)Nc2nc3ccccc3s2)cc1 | Active |  | 90 |  |  |  |  | Activity (P388 [6]): Active; T/C (P388 [7]): 90% |
| CCOC(=O)Nc1nccs1 | Active |  | 108 | 102 |  |  | Active |  |
| O=C(Nc1ccccc1)Nc1nccs1 | Active |  | 93 | 96 |  |  | Active |  |
| O=C(Nc1ccc(Cl)cc1)Nc1nccs1 |  | Active |  | 118 | 111 |  | Active |  |
| O=C(Nc1ccc([N+](=O)[O-])cc1)Nc1nncs1 |  |  | 132 | 124 |  |  | Active | T/C (P388 [7]): 142% |
| CCOC(=O)c1ccc(NC(=O)Nc2nncs2)cc1 |  | Active |  | 134 | 138 | 132 | Active | Activity (P388 [8]): Active; Activity (P388 [11]): Active; T/C (P388 [12]): 119%; TGI (B16 [13]): inactive; Activity (Mus musculus): Non-toxic |
| O=C(Nc1ccc([N+](=O)[O-])cc1)Nc1nccs1 |  | Active |  |  | 142 | 127 |  | Activity (P388 [8]): Active; Activity (P388 [11]): Active; T/C (P388 [12]): 112% |
| CCOC(=O)c1ccc(NC(=S)Nc2nccs2)cc1 |  |  | 92 | 95 |  |  | Active | T/C (P388 [7]): 92% |
| O=C(Nc1nncs1)C(F)(F)F |  | Active |  |  | 161 | 130 |  | Activity (P388 [11]): Active; T/C (P388 [12]): 110% |
| Cc1ccc(S(=O)(=O)NC(=O)Nc2nccs2)cc1 | Active |  | 99 | 106 |  |  | Active |  |
| O=C(Nc1ccccc1)Nc1nncs1 |  |  |  |  |  | 104 |  | Activity (P388 [8]): Active; Activity (P388 [11]): Active; T/C (P388 [12]): 104% |
| CCOC(=O)Nc1nncs1 | Active | Active | 151 | 142 | 132 | 108 | Active | Activity (P388 [8]): Active |
| CCOC(=O)c1ccc(NC(=O)Nc2scc[n+]2C)cc1.COS(=O)(=O)[O-] |  |  | 90 | 100 |  |  | Active |  |
| CCOC(=O)c1ccc(NC(=O)Nc2nccs2)cc1 |  | Active | 162 | 143 | 149 | 145 | Active | Activity (P388 [8]): Active; T/C (B16 [14]): 153%; T/C (B16 [15]): 167%; T/C (B16 [16]): 166%; T/C (B16 [17]): 147%; T/C (B16 [18]): 134%; T/C (L1210): 125%; TGI [19]: inactive |
| O=C(CCl)Nc1nccs1 |  | Active |  | 116 | 103 |  | Active |  |
